This note sets out measurements from patent US8367328B2, “Method for synthesizing DNA” (Takara Bio Inc., priority 1998, dated 2013).

Experiment [1] concerns the target T1, Pfu DNA Polymerase II (Pyrococcus furiosus, UniProt P81409+P81412).
T1 construct: made in house; host or cells: Escherichia coli JM109/pFU1001 (FERM BP-5579)
T1 sequence (P81409 1-1263): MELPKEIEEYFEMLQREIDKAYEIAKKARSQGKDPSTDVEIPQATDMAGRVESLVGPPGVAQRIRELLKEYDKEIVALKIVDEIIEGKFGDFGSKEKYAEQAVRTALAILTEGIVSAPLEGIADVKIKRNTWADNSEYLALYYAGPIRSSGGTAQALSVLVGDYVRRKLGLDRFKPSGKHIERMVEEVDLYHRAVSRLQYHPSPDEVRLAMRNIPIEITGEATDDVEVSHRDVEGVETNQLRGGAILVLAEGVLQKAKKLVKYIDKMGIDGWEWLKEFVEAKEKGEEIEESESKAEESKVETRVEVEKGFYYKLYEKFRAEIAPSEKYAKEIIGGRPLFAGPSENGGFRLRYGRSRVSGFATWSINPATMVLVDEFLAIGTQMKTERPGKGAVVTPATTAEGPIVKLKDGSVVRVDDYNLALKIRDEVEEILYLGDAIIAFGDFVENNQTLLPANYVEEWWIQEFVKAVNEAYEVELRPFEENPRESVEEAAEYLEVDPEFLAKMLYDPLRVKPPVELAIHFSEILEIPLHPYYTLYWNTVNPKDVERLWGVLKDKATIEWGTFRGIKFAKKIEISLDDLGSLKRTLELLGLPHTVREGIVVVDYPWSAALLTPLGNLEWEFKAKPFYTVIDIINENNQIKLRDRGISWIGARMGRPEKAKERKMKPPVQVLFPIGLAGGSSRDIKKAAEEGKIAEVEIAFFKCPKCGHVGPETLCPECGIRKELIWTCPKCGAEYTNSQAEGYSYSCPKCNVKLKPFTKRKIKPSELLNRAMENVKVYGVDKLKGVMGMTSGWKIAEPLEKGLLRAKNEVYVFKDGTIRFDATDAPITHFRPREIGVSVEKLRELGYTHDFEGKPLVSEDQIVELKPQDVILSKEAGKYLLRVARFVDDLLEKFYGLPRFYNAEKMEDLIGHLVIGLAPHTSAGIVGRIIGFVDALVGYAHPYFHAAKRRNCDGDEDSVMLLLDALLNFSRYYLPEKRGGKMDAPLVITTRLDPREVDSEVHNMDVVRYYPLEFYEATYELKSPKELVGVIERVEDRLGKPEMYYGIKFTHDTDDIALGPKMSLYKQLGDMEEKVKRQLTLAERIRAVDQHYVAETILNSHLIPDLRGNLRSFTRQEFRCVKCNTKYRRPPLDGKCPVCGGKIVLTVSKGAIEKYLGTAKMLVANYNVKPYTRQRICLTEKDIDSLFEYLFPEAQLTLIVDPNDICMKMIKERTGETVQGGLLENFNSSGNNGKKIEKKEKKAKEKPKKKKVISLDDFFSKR
T1 sequence (P81412 1-613): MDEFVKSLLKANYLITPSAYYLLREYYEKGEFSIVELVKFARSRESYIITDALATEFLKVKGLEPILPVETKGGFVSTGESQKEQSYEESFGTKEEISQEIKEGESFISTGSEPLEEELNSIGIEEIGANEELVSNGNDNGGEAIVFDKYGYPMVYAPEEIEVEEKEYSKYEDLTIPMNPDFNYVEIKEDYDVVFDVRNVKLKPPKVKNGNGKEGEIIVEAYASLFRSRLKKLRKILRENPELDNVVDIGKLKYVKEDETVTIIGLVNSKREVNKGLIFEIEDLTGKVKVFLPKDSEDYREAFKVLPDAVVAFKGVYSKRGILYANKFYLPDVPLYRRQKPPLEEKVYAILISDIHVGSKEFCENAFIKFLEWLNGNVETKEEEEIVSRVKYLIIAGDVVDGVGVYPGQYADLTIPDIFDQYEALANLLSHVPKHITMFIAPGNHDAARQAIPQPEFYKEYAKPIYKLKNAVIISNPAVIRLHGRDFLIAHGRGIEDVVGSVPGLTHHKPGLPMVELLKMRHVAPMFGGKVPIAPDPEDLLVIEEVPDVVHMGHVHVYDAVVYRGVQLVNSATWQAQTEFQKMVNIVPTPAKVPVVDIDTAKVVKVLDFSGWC
Kind of experiment: PCR with Pfu DNA Polymerase II in the presence of acidic substances (λDNA template). The experiment is classed as biochemical. The note with it: 0.5 kb fragment; 100 pg λDNA, primers λ1/λ2, 25 cycles 98°C 5 s–66°C 15 s; amount added 10 ng. The procedure: A reaction mixture comprising λDNA as a template, primers λ1 and λ3 as a primer pair, and Pfu DNA Polymerase II as DNA polymerase was prepared, and PCR was carried out. The composition of the reaction mixture is as follows.
10 mM Tris-hydrochloric acid (pH 9.2), 75 mM potassium chloride, 6 mM magnesium chloride, 0.4 mM each of dATP, dCTP, dGTP and dTTP, 0.01% BSA, 1.25 U of Pfu DNA Polymerase II, 500 pg of λDNA, and 5 pmol each of primers λ1 and λ3 (a final volume being 25 μl). […]
Using the sulfated-fucose-containing Polysaccharide-F obtained in Example 6 described above, dextran sulfate powder (manufactured by Onco), or sodium alginate (100 to 150 centipoises, manufactured by Wako Pure Chemicals), the effects of these acidic substances on the activity of Pfu DNA Polymerase II were examined. A reaction mixture comprising λDNA as a template, primers λ1 and λ2 as a primer pair, and Pfu DNA Polymerase II as DNA polymerase was prepared, and PCR was carried out. The composition of the reaction mixture is as follows.
10 mM Tris-hydrochloric acid, pH 9.2, 75 mM potassium chloride, 6 mM magnesium chloride, 0.4 mM each of dATP, dCTP, dGTP and dTTP, 0.01% BSA, 1.25 U of Pfu DNA Polymerase II, 100 pg of λDNA, and 5 pmol each of primers λ1 and λ2 (a final volume being 25 μl). Further, 10 ng of the sulfated-fucose-containing polysaccharide-F, 10 ng of dextran sulfate powder, or 1 μg of sodium alginate was respectively added to the above reaction mixture.
The reaction in 25 cycles was carried out for each of these reaction mixtures, wherein one cycle of reaction comprises a process consisting of 98° C., 5 seconds—66° C., 15 seconds. Thereafter, 5 μl of the resulting reaction mixture was subjected to electrophoresis on 1% agarose gel containing ethidium bromide in an amount of 0.00005%, whereby an amplified fragment was confirmed.
Further, studies were conducted on the effects of the sulfated-fucose-containing polysaccharide-F obtained in Example 6 described above, the sulfated-fucose-containing polysaccharide-U obtained in Example 7 described above, or sodium polyglutamate (manufactured by Sigma) as an acidic substance. A reaction mixture for PCR was prepared in the same manner as described above except for changing the amount of template λDNA to 500 pg and the primer pairs to primers λ1 and λ3. Five nanograms of the sulfated-fucose-containing polysaccharide-F, 5 ng, 10 ng, 20 ng or 30 ng each of the sulfated-fucose-containing polysaccharide-U, or 250 ng, 500 ng, 750 ng or 1000 ng each of sodium polyglutamate was respectively added to the above reaction mixture.
The reaction was carried out in 30 cycles, wherein one cycle of reaction comprises a process consisting of 98° C., 5 seconds—66° C., 15 seconds. After the termination of the reaction, 5 μl of the resulting reaction mixture was subjected to electrophoresis on 1% agarose gel containing ethidium bromide in an amount of 0.00005%, whereby an amplified fragment was confirmed.
Using the sulfated-fucose-containing polysaccharide-F obtained in Example 6 described above, the effects on the activity of Pfu DNA Polymerase II were examined. A reaction mixture comprising λDNA as a template, primers λ1 and λ2 as a primer pair, and Pfu DNA Polymerase II as DNA polymerase was prepared, and PCR was carried out. The composition of the reaction mixture is as follows.
10 mM Tris-hydrochloric acid, pH 9.2, 75 mM potassium chloride, 6 mM magnesium chloride, 0.4 mM each of dATP, dCTP, dGTP and dTTP, 0.01% BSA, 1.25 U of Pfu DNA Polymerase II, 500 pg of λDNA, and 5 pmol each of primers λ1 and λ2 (a final volume being 25 μl). Further, 10 ng of the sulfated-fucose-containing polysaccharide-F was respectively added to the above reaction mixture.
The reaction in 30 cycles was carried out for each of these reaction mixtures, wherein one cycle of reaction comprises a process consisting of 98° C., 5 seconds—66° C., 15 seconds. […]

Experiment [2] concerns the target T2, KOD DNA Polymerase (Thermococcus kodakarensis, UniProt P77933, DEL407-766/DEL852-1388).
T2 construct: purchased TOYOBO CO., LTD
Put plainly: PCR with KOD DNA Polymerase (α-type) in the presence of acidic substances. The experiment is classed as biochemical, Pyrococcus sp. The settings on record: 10 kb fragment, 100 pg λDNA, 30 cycles 98°C 5 s–68°C 3 min. The procedure: (1) Using sodium alginate, sodium hyaluronate (manufactured by Seikagaku Kogyo), or κ carrageenan (manufactured by Sigma), the effects of these acidic substances on α-type DNA polymerase were examined. A reaction mixture comprising λDNA as a template, primers λ1 and λ8 as a primer pair, and KOD DNA Polymerase (manufactured by TOYOBO CO., LTD.) as DNA polymerase was prepared, and PCR was carried out. The composition of the reaction mixture is as follows. Composition of Reaction Mixture: KOD DNA Polymerase Buffer I (manufactured by TOYOBO CO., LTD.) 0.2 mM each of dATP, dCTP, dGTP and dTTP, 0.625 U of KOD DNA Polymerase, 100 pg of λDNA, and 5 pmol each of primers λ1 and λ8 (a final volume being 25 μl). Further, 1 μg or 2.5 μg of sodium alginate, 0.1 μg or 0.5 μg of sodium hyaluronate, or 0.1 μg or 0.25 μg of κ carrageenan was respectively added to the above reaction mixture.
The reaction in 30 cycles was carried out for each of these reaction mixtures, wherein one cycle of reaction comprises a process consisting of 98° C., 5 seconds—68° C., 3 minutes. Thereafter, 5 μl of the resulting reaction mixture was subjected to electrophoresis on 1% agarose gel containing ethidium bromide in an amount of 0.00005%, whereby an amplified fragment was confirmed.
(2) The effects on α-type DNA polymerase were also examined in the same manner as in item (1) above for sodium alginate, κ carrageenan, sodium heparan sulfate (manufactured by Sigma), sodium dermatan sulfate (manufactured by Sigma), potassium polyvinyl sulfate (manufactured by nacalaitesque) or sodium polystyrenesulfonate (two kinds: average molecular weights of 5,400 and 35,000, all manufactured by nacalaitesque). A reaction mixture comprising λDNA as a template, primers λ1 and λ8 as a primer pair, and KOD DNA Polymerase as DNA polymerase was prepared, and PCR was carried out. The composition of the reaction mixture is as follows. Composition of Reaction Mixture: KOD DNA Polymerase Buffer II (manufactured by TOYOBO CO., LTD.) 0.2 mM each of dATP, dCTP, dGTP and dTTP, 1.25 U of KOD DNA Polymerase, 100 pg of λDNA, and 10 pmol each of primers λ1 and λ8 (a final volume being 50 μl). Further, 2.5 μg or 5 μg of sodium alginate, 0.25 μg or 0.5 μg of κ carrageenan, or 125 ng, 250 ng or 375 ng of sodium dermatan sulfate, 500 ng of sodium heparan sulfate, 10 ng of potassium polyvinyl sulfate, 2.5 ng or 5 ng of sodium polystyrenesulfonate (average molecular weight: 5,400), or 5 ng of sodium polystyrenesulfonate (average molecular weight: 35,000) was respectively added to the above reaction mixture.

[3] abbreviates: Buffer I, 0.625 U KOD, primers λ1/λ8, 25 μl, amount added 0.1 μg.

T2 sequence (P77933 other isoform, or with tags, fused parts or gaps DEL407-766/DEL852-1388): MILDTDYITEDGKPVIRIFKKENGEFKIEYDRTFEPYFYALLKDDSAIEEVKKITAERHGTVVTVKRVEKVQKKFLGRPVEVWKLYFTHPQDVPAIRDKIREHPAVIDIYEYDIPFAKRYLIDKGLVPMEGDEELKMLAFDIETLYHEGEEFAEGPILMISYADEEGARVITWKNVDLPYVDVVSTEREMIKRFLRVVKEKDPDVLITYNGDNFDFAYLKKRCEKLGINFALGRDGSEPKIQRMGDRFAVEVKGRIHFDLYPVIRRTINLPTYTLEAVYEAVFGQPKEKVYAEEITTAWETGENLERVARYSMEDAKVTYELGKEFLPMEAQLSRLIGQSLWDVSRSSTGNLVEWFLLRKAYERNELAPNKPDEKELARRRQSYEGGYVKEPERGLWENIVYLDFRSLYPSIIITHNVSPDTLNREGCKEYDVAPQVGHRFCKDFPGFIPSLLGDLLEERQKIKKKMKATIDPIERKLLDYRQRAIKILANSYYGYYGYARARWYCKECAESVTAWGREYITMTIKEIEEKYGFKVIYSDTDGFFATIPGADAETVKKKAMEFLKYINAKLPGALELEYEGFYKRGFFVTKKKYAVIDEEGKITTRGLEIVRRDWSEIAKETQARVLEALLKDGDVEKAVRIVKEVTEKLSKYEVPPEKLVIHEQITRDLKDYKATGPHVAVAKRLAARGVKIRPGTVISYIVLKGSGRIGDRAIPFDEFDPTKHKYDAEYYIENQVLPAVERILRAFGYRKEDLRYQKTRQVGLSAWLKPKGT

In the case of “dextran sulfate [Dextran Sulfate Powder]”, the “Amplification Results” value in experiment [1] is “+ (Amplification being observed)”.
With sodium dermatan sulfate, the “Amplification Results” value in experiment [2] (Buffer II, 1.25 U KOD, primers λ1/λ8, 50 μl, amount added 125 ng) is recorded as “+ (Amplification being observed)”; in experiment [2] (Buffer II, 1.25 U KOD, primers λ1/λ8, 50 μl, amount added 250 ng), “+ (Amplification being observed)”; in experiment [2] (Buffer II, 1.25 U KOD, primers λ1/λ8, 50 μl, amount added 375 ng), “+ (Amplification being observed)”.
In the case of sodium heparan sulfate, the “Amplification Results” value in experiment [2] (Buffer II, 1.25 U KOD, primers λ1/λ8, 50 μl, amount added 500 ng) is “+ (Amplification being observed)”.
With sodium hyaluronate, the “Amplification Results” value in experiment [2] (setting [3]) was “+ (Amplification being observed)”; in experiment [2] (Buffer I, 0.625 U KOD, primers λ1/λ8, 25 μl, amount added 0.5 μg) it was “+ (Amplification being observed)”.
As for κ carrageenan, the “Amplification Results” value in experiment [2] (setting [3]) is reported as “+ (Amplification being observed)”; in experiment [2] (Buffer I, 0.625 U KOD, primers λ1/λ8, 25 μl, amount added 0.25 μg), “+ (Amplification being observed)”; in experiment [2] (Buffer II, 1.25 U KOD, primers λ1/λ8, 50 μl, amount added 0.25 μg), “++ (Intensive amplification being observed)”; in experiment [2] (Buffer II, 1.25 U KOD, primers λ1/λ8, 50 μl, amount added 0.5 μg), “++ (Intensive amplification being observed)”.
